Reference: patent US20220119761A1, “ASPERGILLUS NIGER F22 STRAIN HAVING NEMATICIDAL ACTIVITY AGAINST PLANT-PARASITIC NEMATODES, AND USE THEREOF” (INDUSTRY FOUNDATION OF CHONNAM NATIONAL UNIVERSITY, priority 2015, published 2022)

Tested on: Meloidogyne incognita
Experiment: 96-well microplate bioassay of nematicidal activity of culture filtrates on Meloidogyne spp. larva suspension
Conditions: 1 μg/mL, control drug, after 3 days
Procedure: To select filamentous fungi having an excellent nematicidal activity, the present inventors have received 61 culture filtrates of filamentous fungi to screen their nematicidal activities. Specifically, roots of a tomato plant infected with Meloidogyne spp. were washed with running water to remove foreign substances. Thereafter, the well-washed roots were cut into pieces at intervals of 1 cm or less, and put into a blender. Then, a 0.5% sodium hypochlorite solution was added at such an amount that the roots were immersed, and the roots were ground for one minute. Subsequently, the ground roots were filtered through a 65 μm sieve to remove root debris, and the eggs passed through the sieve were collected through a 25 μm sieve, and then washed with sterilized water several times. A concentration of the collected Meloidogyne spp. eggs was measured using a stereoscopic microscope.
The nematicidal activities of the culture filtrates of the 61 fungi were screened using a 96-well microplate bioassay. 45 μL of a Meloidogyne spp. larva suspension, which includes approximately 50 larvae, was added to each of holes, and then treated with a 10% culture filtrate. After 3 days of the sample treatment, the nematicidal activity was determined using the following equation. […]

In the case of abamectin, the nematicidal activity was 95%.
